From the NIST ThermoML archive (doi:10.1021/acs.jced.6b00895)
Numbers after ± are expanded uncertainties.

Settings: Liquid, Ebulliometric method (Recirculating still)

In the case of `COCC(C)O` (centres undefined) [1-methoxy-2-propanol], the “vapor or sublimation pressure” value (393.15 K) is reported as 101.3 ± 1.5 kPa.
For `COC(C)CO` (centres undefined) [2-methoxy-1-propanol], the “vapor or sublimation pressure” value (402.65 K) was 101.3 ± 1.5 kPa.
With `COCCO` [2-methoxyethan-1-ol] the “vapor or sublimation pressure” value (397.67 K) was 101.3 ± 1.5 kPa.
For `O` [water], the “vapor or sublimation pressure” value (373.19 K) was 101.3 ± 1.5 kPa.
